In publication PMC7721589, “Synthesis and structure-activity relationships for tetrahydroisoquinoline-based inhibitors of Mycobacterium tuberculosis” (Bioorganic & Medicinal Chemistry, 2020):
Values after ≈ are worked out from the molar mass of the structure shown. Where two headings read alike, the source gives them in different places.

How the values were obtained:
M.tb strain H37Rv [1] = experiment: MIC against M.tb H37Rv under aerobic (replicating; MABA) conditions; format: cell-based, Mycobacterium tuberculosis; details: for MIC MABA: MIC90, Table 1; for MIC: Mycobacterium tuberculosis
M.tb strain H37Rv [2] = experiment: MIC against M.tb H37Rv under non-replicating (LORA) conditions; details: for MIC LORA: MIC90, Table 1; for MIC (µg/mL) LORA: MIC90, Table 2
[3] = tested on: Vero green monkey-derived epithelial kidney cells; experiment: Mammalian cytotoxicity in Vero cells; format: cell-based; details: for IC50: Chlorocebus sabaeus
[4] = MIC90, Table 1, read-out: MIC MABA
[5] = MIC90, Table 2, read-out: MIC (µg/mL) MABA

Compound	MIC MABA (M.tb strain H37Rv [1]) [µg/mL]	MIC LORA (M.tb strain H37Rv [2]) [µg/mL]	IC50 VERO ([3]; Table 1) [µg/mL]	MIC (M.tb strain H37Rv [1]; [4]) [µg/mL]	IC50 ([3]; Table 1) [µg/mL]	melting point [°C]	MIC (M.tb strain H37Rv [1]; [5]) [µg/mL]	IC50 ([3]; Table 2) [µg/mL]	MIC (µg/mL) LORA (M.tb strain H37Rv [2]) [µg/mL]
2-((5-(2,4-Dichlorophenyl)pyridin-2-yl)methyl)-8-(4-methylpiperazin-1-yl)-1,2,3,4-tetrahydroisoquinoline [Compound 11]	3.6	11	–	–	–	–	–	–	–
2-((5-(4-Chlorophenyl)pyridin-2-yl)methyl)-8-(4-methoxypiperazin-1-yl)-5-methyl-1,2,3,4-tetrahydroisoquinoline [Compound 13]	1.8	6.1	12	–	–	–	–	–	–
CSc1ccc(N2CCN(C)CC2)c2c1CCN(Cc1ccc(-c3ccc(Cl)cc3C)cn1)C2 [Compound 14, 2-((5-(4-Chloro-2-methylphenyl)pyridin-2-yl)methyl)-8-(4-methylpiperazin-1-yl)-5-(methylthio)-1,2,3,4-tetrahydroisoquinoline]	–	6.0 (≈ 12.2 µM)	–	3.4 (≈ 6.89 µM)	11 (≈ 22.3 µM)	65 to 68	–	–	–
Cc1cc(Cl)ccc1-c1ccc(CN2CCc3c(F)ccc(N4CCN(C)CC4)c3C2)nc1 [Compound 15, 2-((5-(4-Chloro-2-methylphenyl)pyridin-2-yl)methyl)-8-(4-methylpiperazin-1-yl)-5-fluoro-1,2,3,4-tetrahydroisoquinoline]	–	6.1 (≈ 13.1 µM)	–	3.8 (≈ 8.17 µM)	24 (≈ 51.6 µM)	–	–	–	–
CN1CCN(c2ccc(F)c3c2CN(Cc2ccc(-c4ccc(F)cc4F)cn2)CC3)CC1 [Compound 16, 2-((5-(2,4-Difluorophenyl)pyridin-2-yl)methyl)-5-fluoro-8-(4-methylpiperazin-1-yl)-1,2,3,4-tetrahydroisoquinoline]	–	21 (≈ 46.4 µM)	–	15 (≈ 33.1 µM)	22 (≈ 48.6 µM)	–	–	–	–
CN1CCN(c2ccc(F)c3c2CN(Cc2ccc(-c4ccc(Cl)cc4C(F)(F)F)cn2)CC3)CC1 [Compound 17, 2-((5-(4-Chloro-2-(trifluoromethyl)phenyl)pyridin-2-yl)methyl)-5-fluoro-8-(4-methylpiperazin-1-yl)-1,2,3,4-tetrahydroisoquinoline]	–	5.4 (≈ 10.4 µM)	–	2.3 (≈ 4.43 µM)	11 (≈ 21.2 µM)	102 to 104	–	–	–
Cc1cc(Cl)ccc1-c1ccc(C(=O)N2CCc3cccc(N4CCN(C)CC4)c3C2)nc1 [Compound 18, (5-(4-Chloro-2-methylphenyl)pyridin-2-yl)(8-(4-methylpiperazin-1-yl)-3,4-dihydroisoquinolin-2(1H)-yl)methanone]	–	13 (≈ 28.2 µM)	–	11 (≈ 23.9 µM)	20 (≈ 43.4 µM)	132 to 135	–	–	–
CN1CCN(c2cccc3c2CN(C(=O)c2ccc(-c4ccc(Cl)cc4)cn2)CC3)CC1 [Compound 19, (5-(4-Chlorophenyl)pyridin-2-yl)(8-(4-methylpiperazin-1-yl)-3,4-dihydroisoquinolin-2(1H)-yl)methanone]	–	20 (≈ 44.7 µM)	–	16 (≈ 35.8 µM)	27 (≈ 60.4 µM)	144 to 147	–	–	–
CN1CCN(c2cccc3c2CN(C(=O)c2ccc(-c4cccc(Cl)c4)cn2)CC3)CC1 [Compound 20, (5-(3-Chlorophenyl)pyridin-2-yl)(8-(4-methylpiperazin-1-yl)-3,4-dihydroisoquinolin-2(1H)-yl)methanone]	–	11.3 (≈ 25.3 µM)	–	15 (≈ 33.6 µM)	24 (≈ 53.7 µM)	105 to 108	–	–	–
COc1ccc(N2CCN(C)CC2)c2c1CCN(C(=O)c1ccc(-c3ccc(Cl)cc3)cn1)C2 [Compound 21, (5-(4-Chlorophenyl)pyridin-2-yl)(5-methoxy-8-(4-methylpiperazin-1-yl)-3,4-dihydroisoquinolin-2(1H)-yl)methanone]	–	12 (≈ 25.2 µM)	–	13 (≈ 27.3 µM)	11 (≈ 23.1 µM)	124 to 127	–	–	–
COc1ccc(N2CCN(C)CC2)c2c1CCN(C(=O)c1ccc(-c3ccc(Cl)cc3C)cn1)C2 [Compound 22, (5-(4-Chloro-2-methylphenyl)pyridin-2-yl)(5-methoxy-8-(4-methylpiperazin-1-yl)-3,4-dihydroisoquinolin-2(1H)-yl)methanone]	–	8.0 (≈ 16.3 µM)	–	8.9 (≈ 18.1 µM)	22 (≈ 44.8 µM)	125 to 128	–	–	–
Cc1cc(Cl)ccc1-c1ccc(NC(=O)N2CCc3cccc(N4CCN(C)CC4)c3C2)nc1 [Compound 24, N-(5-(4-Chloro-2-methylphenyl)pyridin-2-yl)-8-(4-methylpiperazin-1-yl)-3,4-dihydroisoquinoline-2(1H)-carboxamide]	–	7.7 (≈ 16.2 µM)	–	6.2 (≈ 13 µM)	11 (≈ 23.1 µM)	–	–	–	–
Cc1ccc(N2CCN(C)CC2)c2c1CCN(C(=O)Nc1ccc(-c3ccc(Cl)cc3Cl)cn1)C2 [Compound 25, N-(5-(2,4-Dichlorophenyl)pyridin-2-yl)-5-methyl-8-(4-methylpiperazin-1-yl)-3,4-dihydroisoquinoline-2(1H)-carboxamide]	–	1.99 (≈ 3.9 µM)	–	1.95 (≈ 3.82 µM)	12 (≈ 23.5 µM)	–	–	–	–
CCc1ccc(N2CCN(C)CC2)c2c1CCN(C(=O)Nc1ccc(-c3ccc(Cl)cc3C)cn1)C2 [Compound 28, N-(5-(4-Chloro-2-methylphenyl)pyridin-2-yl)-5-ethyl-8-(4-methylpiperazin-1-yl)-3,4-dihydroisoquinoline-2(1H)-carboxamide]	–	1.8 (≈ 3.57 µM)	–	2.9 (≈ 5.75 µM)	12 (≈ 23.8 µM)	180 to 182	–	–	–
Cc1cc(Cl)ccc1-c1ccc(NC(=O)N2CCc3c(Cc4ccccc4)ccc(N4CCN(C)CC4)c3C2)nc1 [Compound 29, 5-Benzyl-N-(5-(4-chloro-2-methylphenyl)pyridin-2-yl)-8-(4-methylpiperazin-1-yl)-3,4-dihydroisoquinoline-2(1H)-carboxamide]	–	1.5 (≈ 2.65 µM)	–	1.8 (≈ 3.18 µM)	11 (≈ 19.4 µM)	–	–	–	–
Cc1ccc(-c2ccc(NC(=O)N3CCc4c(Cc5ccccc5)ccc(N5CCN(C)CC5)c4C3)nc2)c(C)c1 [Compound 30, 5-Benzyl-N-(5-(2,4-dimethylphenyl)pyridin-2-yl)-8-(4-methylpiperazin-1-yl)-3,4-dihydroisoquinoline-2(1H)-carboxamide]	–	1.9 (≈ 3.48 µM)	–	2 (≈ 3.66 µM)	11 (≈ 20.2 µM)	94 to 97	–	–	–
COc1ccc(N2CCN(C)CC2)c2c1CCN(C(=O)Nc1ccc(-c3cncnc3)cn1)C2 [Compound 31, 5-Methoxy-8-(4-methylpiperazin-1-yl)-N-(5-(pyrimidin-5-yl)pyridin-2-yl)-3,4-dihydroisoquinoline-2(1H)-carboxamide]	–	>32	–	> 32	> 32	236 to 239	–	–	–
COc1ccc(N2CCN(C)CC2)c2c1CCN(C(=O)Nc1ccc(-c3cc(C(F)(F)F)cc(C(F)(F)F)c3)cn1)C2 [Compound 38, N-(5-(3,5-Bis(trifluoromethyl)phenyl)pyridin-2-yl)-5-methoxy-8-(4-methylpiperazin-1-yl)-3,4-dihydroisoquinoline-2(1H)-carboxamide]	–	–	–	1.3 (≈ 2.19 µM)	10 (≈ 16.8 µM)	106 to 109	–	–	–
CSc1ccc(N2CCN(C)CC2)c2c1CCN(C(=O)Nc1ccc(-c3cc(C(F)(F)F)cc(C(F)(F)F)c3)cn1)C2 [Compound 39, N-(5-(3,5-Bis(trifluoromethyl)phenyl)pyridin-2-yl)-8-(4-methylpiperazin-1-yl)-5-(methylthio)-3,4-dihydroisoquinoline-2(1H)-carboxamide]	–	4.0 (≈ 6.56 µM)	–	3.6 (≈ 5.91 µM)	20 (≈ 32.8 µM)	–	–	–	–
CN1CCN(c2ccc(F)c3c2CN(C(=O)Nc2ccc(-c4ccc(Cl)c(C(F)(F)F)c4)cn2)CC3)CC1 [Compound 41, N-(5-(4-Chloro-3-(trifluoromethyl)phenyl)pyridin-2-yl)-5-fluoro-8-(4-methylpiperazin-1-yl)-3,4-dihydroisoquinoline-2(1H)-carboxamide]	–	2.9 (≈ 5.29 µM)	–	1.4 (≈ 2.55 µM)	10 (≈ 18.2 µM)	–	–	–	–
CN1CCN(c2cccc3c2CN(C(=O)Cc2ccc(-c4ccccc4)cn2)CC3)CC1 [Compound 44, 1-(8-(4-Methylpiperazin-1-yl)-3,4-dihydroisoquinolin-2(1H)-yl)-2-(5-phenylpyridin-2-yl)ethan-1-one]	–	>32	–	> 32	> 32	–	–	–	–
CN1CCN(c2cccc3c2CN(C(=O)Cc2ccc(-c4cccc(Cl)c4)cn2)CC3)CC1 [Compound 45, 2-(5-(3-Chlorophenyl)pyridin-2-yl)-1-(8-(4-methylpiperazin-1-yl)-3,4-dihydroisoquinolin-2(1H)-yl)ethan-1-one]	–	21.7 (≈ 47.1 µM)	–	15 (≈ 32.5 µM)	25 (≈ 54.2 µM)	–	–	–	–
CN1CCN(c2cccc3c2CN(C(=O)Cc2ccc(-c4ccc(OC(F)(F)F)cc4)cn2)CC3)CC1 [Compound 46, 1-(8-(4-Methylpiperazin-1-yl)-3,4-dihydroisoquinolin-2(1H)-yl)-2-(5-(4-(trifluoromethoxy)phenyl)pyridin-2-yl)ethan-1-one]	–	12.4 (≈ 24.3 µM)	–	13.7 (≈ 26.8 µM)	20 (≈ 39.2 µM)	–	–	–	–
Cc1cc(Cl)ccc1-c1ccc(CN2CCc3c(C)ccc(N4CCNCC4)c3C2)nc1 [Compound 52, 2-((5-(4-Chloro-2-methylphenyl)pyridin-2-yl)methyl)-5-methyl-8-(piperazin-1-yl)-1,2,3,4-tetrahydroisoquinoline]	–	–	–	–	–	–	1.8 (≈ 4.03 µM)	12 (≈ 26.8 µM)	4.4 (≈ 9.84 µM)
Cc1cc(Cl)ccc1-c1ccc(CN2CCc3c(C)ccc(N4CCOCC4)c3C2)nc1 [Compound 53, 4-(2-((5-(4-Chloro-2-methylphenyl)pyridin-2-yl)methyl)-5-methyl-1,2,3,4-tetrahydroisoquinolin-8-yl)morpholine]	–	–	–	–	–	–	7.8 (≈ 17.4 µM)	> 32	12 (≈ 26.8 µM)
Cc1cc(Cl)ccc1-c1ccc(CN2CCc3c(C)ccc(N4CCCCC4)c3C2)nc1 [Compound 55, 2-((5-(4-Chloro-2-methylphenyl)pyridin-2-yl)methyl)-5-methyl-8-(piperidin-1-yl)-1,2,3,4-tetrahydroisoquinoline]	–	–	–	–	–	96 to 98	2.6 (≈ 5.83 µM)	> 32	–
